Measured values from patent US20060046972A1, “Cytotoxic nucleoside analog compound 003 for treating cancer” (Parker Hughes Institute, priority 2004, published 2006).

Experiments:
[1] = system: human infant leukemia (RS4; 11); test: DNA flow cytometry of cell cycle arrest, RS4;11; format: cell-based; conditions: 100 μM, 48 hour
Experimental: (§1) Exponentially growing tumor cells were cultured at 1×10^6 cells/ml in clonogenic medium (RPMI 1640 medium +1% penicillin/streptomycin +10% heat-inactivated fetal bovine serum, 2 mML-glutamine, and 10 mM Hepes buffer) in the presence or absence of 100 μM compound 003 for 48 hour at 37° C., 5% CO2. At 48 h, cells were washed two times in fresh clonogenic medium, trypsinized, fixed in ice cold ethanol and labeled with propidium iodide to quantify their DNA content, as described previously (See, for example, Navara, et al., 2001, Anticancer Drugs. 12:369). Quantitative DNA analysis was performed on a Becton Dickenson Calibur flow cytometer equipped with a Consort 40 computer using the COTFIT program, which includes CELLCY, a cell cycle distribution function that fits DNA content histograms and calculates-the percentages of cells in G, S, and GM phases of the cell cycle, as described, for example, in Uckun et al., 1996, J Biol Chem. 271, 6389.

[2] = system: centrosomes isolated from an EBV-transformed B-lymphoblastoid cell line; test: Centrosomal regrowth assay of aster formation from isolated centrosomes; format: biochemical; conditions: 100 μM
Experimental: Centrosome isolation from an EBV-transformed B-lymphoblastoid cell line was performed following a slight modification of a literature procedure (See, for example, Moudjou and Bomens, 1994, Cell Biology: A Laboratory Handbook, p. 595. Academic Press, Inc, New York; and Cell Biology: A Laboratory Handbook, 1994).
Briefly, cells were grown to a density of 1×10^6 per ml. A total of 1×10^9 cells were treated for 1 hour with […] and […]. All subsequent procedures were performed at 4° C. Firstly, cells were transferred into sterile conical 50 ml tubes and sedimented at 1,200×g for 5 minutes. Cells were then washed twice with 50 ml of filtered tris buffered saline (10 mM Tris-HCl, pH 7.4, 150 mM NaCl, TBS) by gentle resuspension with a pasteur pipette and sedimented at 1,200×g for 5 minutes. Cells were next washed with 8% sucrose in ten times diluted TBS and sedimented at 1,200×g for 5 minutes. Cells were lysed with 100 ml of 1 mM Hepes lysis buffer (0.5% Nonidet-P40), 0.5mM MgCl2, 0.1% β-Mercaptoethanol, 1 mM PMSF, 100 μg/ml aprotinin, 1 μg/ml leupeptin and 1 μg/ml pepstatin), pH 7.2. The swollen nuclei were sedimented at 1,200×g for 10 minutes and the supernatant was filtered through a 70 μm nylon cell strainer. After the addition of 1M Hepes (10 mM final) and 5 μl of 10 mg/ml DNase (1 μg/ml final), the lysate was incubated for 30 minutes at 4° C. […]

[3] = system: BT20 breast cancer cells; test: Confocal laser scanning microscopy of microtubules / mitotic spindle, BT20; format: cell-based, human
Experimental: Immunofluorenscence was used to examine the spindle features of human cancer cell lines treated with Compound 003 or 0.5% DMSO. […] The coverslips were incubated with antibodies raised against α-tubulin, γ-tubulin (Sigma Chemical Co., St Louis, Mo.) (40 min 37° C.), washed in PBS-Tx-100, and incubated with an appropriate secondary antibody conjugated to FITC (Jackson ImmunoResearch, Westgrove, Pa.). Cellular DNA was labeled with 5 μM TOTO3 (Molecular Probes, Eugene, Oreg.) for 20 minutes. Coverslips were immediately inverted onto slides in Vectashield (Vector Labs, Burlingame, Calif.) to prevent photobleaching, sealed with nail varnish and stored at −20° C. The slides were examined using a Bio-Rad MRC-1024 Laser Scanning Confocal Microscope equipped with a Kr/Ar laser (BioRad, Hercules, Calif.) mounted on a Nikon Eclipse E800 upright microscope with high numerical aperture objectives (Nikon, Melville, N.Y.). Digital data were processed using Lasersharp (BioRad) and Adobe Photoshop software (Adobe Systems, Mountain View, Calif.). ( See, for example, Navara, et al., 2001, Anticancer Drugs. 12:369; Malaviya, et al., 2002, Leuk Lymphoma. 43, 1329; and Ghosh, 1998, Clin Cancer Res. 4, 2657).

[4] = system: DAUDI, human Burkitt's lymphoma; test: DNA flow cytometry of cell cycle arrest, DAUDI; format: cell-based; conditions: 100 μM, 48 hour
Experimental: as §1

What does the source list for `COC(=O)C(C)NP(=O)(OCC1OC(n2cc(C)c(=O)[nH]c2=O)CC1N=[N+]=[N-])Oc1ccc(OC)cc1` (centres unmarked) [Compound 003, 3′-azidothymidine 5′-[p-methoxyphenylmethoxyalaninyl phosphate]]?
cell cycle arrest [1]: G2M cell cycle arrest; nucleation of microtubules and aster growth from isolated centrosomes [2]: inhibited the ability of the centrosomes to nucleate and sufficiently grow microtubule asters; mitotic spindle formation ([3]; 100 μM): induced aberrant multipolar spindle formation; effect on microtubules ([3]; 185 μM for 24 hours (AZT: similar concentrations)): no microtubules were observed; cell cycle arrest [4]: caused G2 arrest
